Reference: patent publication US20260097126A1, “PHARMACEUTICAL FORMULATIONS AND METHODS FOR THE TREATMENT OF METABOLIC AND LIVER DISORDERS” (priority 2022, published 2026)

Key:
GLP-1 receptor [1] = biological target: T1, GLP-1 receptor (Homo sapiens, UniProt P43220); assay: TagLite binding assay, GLP-1 receptor; settings: for IC50: read-out: GLP-1 receptor IC 50
GIP receptor [2] = biological target: T2, GIP receptor (Homo sapiens, UniProt P48546); assay: TagLite binding assay, GIP receptor; settings: for IC50: read-out: GIP receptor IC 50
T2 sequence (P48546 22-466): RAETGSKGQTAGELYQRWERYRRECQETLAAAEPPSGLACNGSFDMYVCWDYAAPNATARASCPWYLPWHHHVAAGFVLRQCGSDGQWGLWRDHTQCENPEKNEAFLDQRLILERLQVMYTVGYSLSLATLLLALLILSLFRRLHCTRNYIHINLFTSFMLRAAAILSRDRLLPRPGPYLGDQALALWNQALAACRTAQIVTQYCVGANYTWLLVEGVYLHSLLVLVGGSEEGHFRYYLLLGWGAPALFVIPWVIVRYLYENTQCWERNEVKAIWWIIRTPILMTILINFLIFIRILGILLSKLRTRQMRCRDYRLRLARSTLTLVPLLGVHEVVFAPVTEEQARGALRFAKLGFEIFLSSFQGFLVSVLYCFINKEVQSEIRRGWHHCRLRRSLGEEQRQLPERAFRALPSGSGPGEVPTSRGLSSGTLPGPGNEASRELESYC

[3] = system: mice fed a Gubra amylin NASH (GAN) diet; assay: Biological effects in GAN diet-induced NASH mice; format: in vivo; settings: after two weeks; for Gal-3 Relative / Gal-3 Total: liver Galectin-3, histological quantitative assessment; for α-SMA Relative / α-SMA Total: liver alpha-smooth muscle actin, histological quantitative assessment; for TG Relative / TG Total: liver triglycerides
Experimental: NASH was induced in mice by feeding mice a Gubra amylin NASH (GAN) diet as described in Boland et al. World J Gastroenterol. 2019, 25(33): 4904-4920. One week prior to administration of a first dose of compounds, the mice were weighed and randomized, and their food intake was measured. Mice were randomly assigned to dosing groups, with twelve mice per group. […] Compound dose titration (nmol/kg): 0.6 (day 0), 1.2 (day 1), 2.4 (day 2), 4.8 (day 3), 4.8 (day 4), 12 (day 5), 30.0 (from day 6).
After two weeks, animals were sacrificed. Plasma enzymes (P-ALT (alanine aminotransferase) and P-AST (aspartate aminotransferase)), total plasma triglycerides, and total plasma cholesterol were measured, and terminal necropsy of each liver was carried out, determining relative liver weight as a percentage of body weight, assaying total liver biochemistry including total liver triglycerides, plasma insulin and total liver cholesterol, as well as histological evaluation of Galectin-3, and alpha-smooth muscle actin.

GLP-1 receptor [4] = biological target: T1, GLP-1 receptor; assay: HSA modulated binding assay, GLP-1 receptor; settings: for GLP-1 receptor Ratio of HSA/No HSA: binding with 2% HSA to binding with 0% HSA
GIP receptor [5] = biological target: T2, GIP receptor; assay: HSA modulated binding assay, GIP receptor; settings: for GIP receptor Ratio of HSA/No HSA: binding with 2% HSA to binding with 0% HSA
[6] = Pharmacokinetic study of Compounds 4, 14, 15, 17 in monkeys; settings: cynomolgus monkey, in vivo, sc, 0.2 mg/kg
Experimental: The formulations were administered to cynomolgus monkeys at a dose of 0.2 mg/kg. Plasma concentration versus time data was collected and pharmacokinetic values determined.

[7] = Stability study of Compound 4 formulations; format: physicochemical
[8] = GMP formulation, 2.5 mg/ml Compound 4, 0.94% propylene glycol, 0.36% phenol, 0.074% dibasic sodium phosphate, 0.005% polysorbate 80, initial
[9] = same formulation stored for one month at 25° C./60% R.H.

T1 sequence (P43220 24-463): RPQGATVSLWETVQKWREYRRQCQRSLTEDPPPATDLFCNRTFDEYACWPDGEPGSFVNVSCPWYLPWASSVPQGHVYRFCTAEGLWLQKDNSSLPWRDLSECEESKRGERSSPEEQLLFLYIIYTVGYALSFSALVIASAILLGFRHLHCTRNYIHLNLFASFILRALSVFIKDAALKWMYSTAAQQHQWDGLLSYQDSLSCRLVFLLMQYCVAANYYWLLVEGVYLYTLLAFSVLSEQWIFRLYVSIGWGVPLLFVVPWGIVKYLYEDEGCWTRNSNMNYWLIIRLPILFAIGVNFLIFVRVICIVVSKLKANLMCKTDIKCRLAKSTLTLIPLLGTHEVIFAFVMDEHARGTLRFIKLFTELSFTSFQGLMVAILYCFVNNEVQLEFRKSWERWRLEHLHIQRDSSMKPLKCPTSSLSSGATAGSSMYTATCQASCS

Row | Molecule | IC50 (GLP-1 receptor [1]) | IC50 (GIP receptor [2]) | liver Galectin-3 compared to tirzepatide or vehicle (in words) [3] | liver alpha-smooth muscle actin compared to tirzepatide (in words) [3] | liver triglycerides compared to tirzepatide or vehicle (in words) [3] | Gal-3 Relative [3] | Gal-3 Total [3] | α-SMA Relative [3] | α-SMA Total [3] | TG Relative [3] | TG Total [3] | GLP-1 receptor Ratio of HSA/No HSA (GLP-1 receptor [4]) | GIP receptor Ratio of HSA/No HSA (GIP receptor [5]) | also measured
1 | CC[C@H](C)[C@H](NC(=O)[C@H](CC(C)C)NC(=O)[C@H](Cc1c[nH]c2ccccc12)NC(=O)[C@H](CCC(N)=O)NC(=O)[C@@H](NC(=O)[C@H](Cc1ccccc1)NC(=O)[C@H](C)NC(=O)[C@H](CCCCNC(=O)COCCOCCNC(=O)COCCOCCNC(=O)CC[C@H](NC(=O)CCCCCCCCCCCCCCCCCCP(=O)(O)O)C(=O)O)NC(=O)[C@H](CCC(N)=O)NC(=O)[C@H](C)NC(=O)[C@@H](NC(=O)[C@H](CCCCN)NC(=O)[C@H](CC(=O)O)NC(=O)[C@H](CC(C)C)NC(=O)C(C)(C)NC(=O)[C@@H](NC(=O)[C@H](CO)NC(=O)[C@H](Cc1ccc(O)cc1)NC(=O)[C@H](CC(=O)O)NC(=O)[C@H](CO)NC(=O)[C@@H](NC(=O)[C@H](Cc1ccccc1)NC(=O)[C@@H](NC(=O)CNC(=O)[C@H](CCC(=O)O)NC(=O)C(C)(C)NC(=O)[C@@H](N)Cc1ccc(O)cc1)[C@@H](C)O)[C@@H](C)O)[C@@H](C)CC)[C@@H](C)CC)C(C)C)C(=O)N[C@@H](C)C(=O)NCC(=O)NCC(=O)N1CCC[C@H]1C(=O)N[C@@H](CO)C(=O)N[C@@H](CO)C(=O)NCC(=O)N[C@@H](C)C(=O)N1CCC[C@H]1C(=O)N1CCC[C@H]1C(=O)N1CCC[C@H]1C(=O)N[C@@H](CO)C(N)=O [Compound 4] | 105 nM | 153 nM | lower relative and total liver Galectin-3 as compared to administration of tirzepatide or vehicle alone | lower relative and total liver alpha-smooth muscle actin as compared to administration of tirzepatide | lower relative and total liver triglycerides as compared to administration of tirzepatide or vehicle alone | 6.3 ± 0.3 percent fractional area | 137 ± 15 mg | 4.8 ± 0.6 percent fractional area | 102 ± 10 mg | 37 ± 3 mg per/g liver | 70 ± 5 mg per/liver | 6.42 | 1.25 | IC50 (GLP-1 receptor [4]; 0% human serum albumin, read-out: GLP-1 receptor IC 50, 0% HSA): 154 nM; IC50 (GLP-1 receptor [4]; read-out: GLP-1 receptor IC 50, 2% HSA, 2% human serum albumin): 988 nM; IC50 (GIP receptor [5]; 0% human serum albumin, read-out: GIP receptor IC 50, 0% HSA): 264 nM; IC50 (GIP receptor [5]; read-out: GIP receptor IC 50, 2% HSA, 2% human serum albumin): 331 nM; AUC(0-inf) [6]: 321 µg·h/mL; AUC(0-t) [6]: 309 µg·h/mL; CL/F [6]: 15.2 mL/day/kg; Cmax [6]: 1890 ng/mL; Tmax [6]: 20 h; Vd/F [6]: 0.095 L/kg; half-life [6]: 105 h; Compound 4 assay, before storage [7, 8]: 103%; total impurities, before storage [7, 8]: 0.57%; Compound 4 assay, after storage [7, 9]: 102.4%; total impurities, after storage [7, 9]: 0.76%
2 | CC[C@H](C)[C@H](NC(=O)[C@H](CC(C)C)NC(=O)[C@H](Cc1c[nH]c2ccccc12)NC(=O)[C@H](CCC(N)=O)NC(=O)[C@@H](NC(=O)[C@H](Cc1ccccc1)NC(=O)[C@H](C)NC(=O)[C@H](CCCCNC(=O)COCCOCCNC(=O)COCCOCCNC(=O)CC[C@H](NC(=O)CCCCCCCCCCCCCCCCCCC(=O)O)P(=O)(O)O)NC(=O)[C@H](CCC(N)=O)NC(=O)[C@H](C)NC(=O)[C@@H](NC(=O)[C@H](CCCCN)NC(=O)[C@H](CC(=O)O)NC(=O)[C@H](CC(C)C)NC(=O)C(C)(C)NC(=O)[C@@H](NC(=O)[C@H](CO)NC(=O)[C@H](Cc1ccc(O)cc1)NC(=O)[C@H](CC(=O)O)NC(=O)[C@H](CO)NC(=O)[C@@H](NC(=O)[C@H](Cc1ccccc1)NC(=O)[C@@H](NC(=O)CNC(=O)[C@H](CCC(=O)O)NC(=O)C(C)(C)NC(=O)[C@@H](N)Cc1ccc(O)cc1)[C@@H](C)O)[C@@H](C)O)[C@@H](C)CC)[C@@H](C)CC)C(C)C)C(=O)N[C@@H](C)C(=O)NCC(=O)NCC(=O)N1CCC[C@H]1C(=O)N[C@@H](CO)C(=O)N[C@@H](CO)C(=O)NCC(=O)N[C@@H](C)C(=O)N1CCC[C@H]1C(=O)N1CCC[C@H]1C(=O)N1CCC[C@H]1C(=O)N[C@@H](CO)C(N)=O [Compound 8] | 288 nM | 223 nM | lower relative and total liver Galectin-3 as compared to administration of tirzepatide or vehicle alone | lower relative and total liver alpha-smooth muscle actin as compared to administration of tirzepatide | lower relative and total liver triglycerides as compared to administration of tirzepatide or vehicle alone | 5.8 ± 0.6 percent fractional area | 117 ± 12 mg | 4.3 ± 0.5 percent fractional area | 83 ± 8 mg | 40 ± 3 mg per/g liver | 75 ± 7 mg per/liver | – | – | –
3 | CC[C@H](C)[C@H](NC(=O)[C@H](CC(C)C)NC(=O)[C@H](Cc1c[nH]c2ccccc12)NC(=O)[C@H](CCC(N)=O)NC(=O)[C@@H](NC(=O)[C@H](Cc1ccccc1)NC(=O)[C@H](C)NC(=O)[C@H](CCCCNC(=O)COCCOCCNC(=O)COCCOCCNC(=O)CC[C@H](NC(=O)CCCCCCCCCCCCCCCCCCP(=O)(O)OCc1ccccc1)P(=O)(O)O)NC(=O)[C@H](CCC(N)=O)NC(=O)[C@H](C)NC(=O)[C@@H](NC(=O)[C@H](CCCCN)NC(=O)[C@H](CC(=O)O)NC(=O)[C@H](CC(C)C)NC(=O)C(C)(C)NC(=O)[C@@H](NC(=O)[C@H](CO)NC(=O)[C@H](Cc1ccc(O)cc1)NC(=O)[C@H](CC(=O)O)NC(=O)[C@H](CO)NC(=O)[C@@H](NC(=O)[C@H](Cc1ccccc1)NC(=O)[C@@H](NC(=O)CNC(=O)[C@H](CCC(=O)O)NC(=O)C(C)(C)NC(=O)[C@@H](N)Cc1ccc(O)cc1)[C@@H](C)O)[C@@H](C)O)[C@@H](C)CC)[C@@H](C)CC)C(C)C)C(=O)N[C@@H](C)C(=O)NCC(=O)NCC(=O)N1CCC[C@H]1C(=O)N[C@@H](CO)C(=O)N[C@@H](CO)C(=O)NCC(=O)N[C@@H](C)C(=O)N1CCC[C@H]1C(=O)N1CCC[C@H]1C(=O)N1CCC[C@H]1C(=O)N[C@@H](CO)C(N)=O [Compound 12] | – | – | lower relative and total liver Galectin-3 as compared to administration of tirzepatide or vehicle alone | lower relative and total liver alpha-smooth muscle actin as compared to administration of tirzepatide | lower relative and total liver triglycerides as compared to administration of tirzepatide or vehicle alone | 5.7 ± 0.5 percent fractional area | 113 ± 10 mg | 4.4 ± 0.6 percent fractional area | 84 ± 8 mg | 35 ± 3 mg per/g liver | 63 ± 5 mg per/liver | 5.26 | 1.70 | –
4 | tirzepatide [reference compound] | – | – | – | – | – | – | 138 ± 17 mg | – | 108 ± 22 mg | – | 80 ± 11 mg per/liver | – | – | GLP-1 receptor % Binding avg at CMax (GLP-1 receptor [1]): 0.20%; GIP receptor % Binding avg at CMax (GIP receptor [2]): −1.21%; GLP-1 receptor % Binding avg at CMax, 0% HSA (GLP-1 receptor [4]; 0% human serum albumin): −0.14%; GLP-1 receptor % Binding avg at CMax, 2% HSA (GLP-1 receptor [4]; 2% human serum albumin): 33.01%; binding affinity for albumin (in words) (GLP-1 receptor [4]; inferred from the HSA ratios at GLP-1 and GIP receptors): greater than that of Compound 4 or of Compound 12; GIP receptor % Binding avg at CMax, 0% HSA (GIP receptor [5]; 0% human serum albumin): −3.05%; GIP receptor % Binding avg at CMax, 2% HSA (GIP receptor [5]; 2% human serum albumin): 10.07%
